Patent US12310933B2, “Treatment of demyelinating disorders” (The University of Chicago, priority 2013, dated 2025)

Legend:
[1] = test system: differentiating rat oligodendrocyte precursor cells (drOPCs); test: FDA/PI (fluorescein-diacetate/propidium iodide) live/dead cell viability assay, IFN-γ challenge; type: cell-based
Text: Interferon-γ is an inflammatory cytokine that is thought to contribute to multiple sclerosis exacerbations, therefore, treatment of cultured cells of the oligodendrocyte lineage with interferon-γ provides a useful cellular model of MS-related inflammation. drOPCs were isolated and purified to >95% homogeneity from 6-7 day old Sprague-Dawley rat cortices by immunopanning as previously described (Chan et al. 2004 Neuron 43:2; 183-191). Briefly, rat cortices were extracted, diced, and digested with papain at 37° C. Cells were then triturated and resuspended in panning buffer containing insulin, then sequentially immunopanned at room temperature on three plates containing Ran-2, GalC, and O4 antibodies from hybridomal supernatant. The remaining O4^+GalC^− OPCs were removed from the plates with trypsin, resuspended in growth media, and seeded at 37° C. onto pDL-coated flasks to facilitate proliferation. Once sufficient numbers were reached, OPCs were split, plated in differentiation media at 200,000 cells/well, and allowed to differentiate for 24 hours. […] Following 48 hours of treatment, media was removed and the cells were incubated in FDA/PI (fluorescein-diacetate/propidium iodide) for 3 minutes, rinsed with 1×PBS, and imaged for live/dead cell quantification. In living cells, non-fluorescent FDA is converted into fluorescein, giving off a bright green fluorescence. PI is membrane impermeable and therefore excluded from live cells. Therefore, green cells indicate viable cells and red cells indicate non-viable cells. […] Treatment with 200 U/ml IFN-γ alone reduced the number of green cells and increased the number of red cells (C). […] FIG. 2B illustrates the quantitation of the experiment in FIG. 2a. […] Treatment with IFN-γ alone caused a roughly 40-50% decrease in cell survival. […] Data is presented as the mean+/−SEM for an N=3/group. (*p<0.05, **p<0.005)

[2] = test system: differentiating rat oligodendrocyte precursor cells (drOPCs); test: TUNEL assay for IFN-γ induced apoptosis; type: cell-based
Experimental: Cells were isolated as described previously and plated in chamber slides at 20,000 cells/chamber. Cells were then treated with the same IFN-γ and guanabenz protocol as described previously, then subjected to a TUNEL assay. […] FIG. 3B illustrates the quantitation of the experiment in FIG. 3a. […] Error bars represent mean±SEM for an N=3/group (*p<0.05, **p<0.005, ***p<0.0005)

[3] = test system: cultured rat cerebellar slices; test: Myelin basic protein and toluidine blue staining of ex vivo cultured cerebellar slices treated with IFN-γ; type: cell-based; conditions: seven days
Experimental: Briefly, cerebellar sections were prepared from 6 day old Sprague-Dawley rat pups. […] Two to three sections were collected per well and grown in growth media with Fungizone. […] Sections were then stained for myelin-basic protein (A-E) and toluidine blue (F-H), used to visualize myelin and neuronal cytoarchitecture.

[4] = test system: C57BL/6J mice with experimental autoimmune encephalitis (EAE); test: Chronic EAE (MOG35-55), clinical scores and symptom onset; type: in vivo, mouse
[5] = test system: SJL mice with remitting/relapsing EAE; test: Remitting/relapsing EAE (PLP139-151), clinical scores; type: in vivo, mouse
[6] = test system: C57BL/6J mice with chronic EAE; test: Guanabenz/interferon co-administration in chronic EAE, onset of clinical symptoms; type: in vivo, mouse; conditions: for onset of clinical symptoms: daily from post immunization day 7
Text: Eight week old C57BL/6J female mice were immunized with MOG35-55/CFA to induce chronic EAE. […] Mice were scored daily for clinical symptoms (0=healthy, 1=flaccid tail, 2=ataxia and/or paresis of hindlimbs, 3=paralysis of hindlimbs and/or paresis of forelimbs, 4=tetraparalysis, 5=moribund or death). […] Onset of clinical symptoms began at approximately day 12 in saline-treated mice and at approximately day 13 in mice treated with interferon alone. […] While preferred embodiments of the present invention have been shown and described herein, it will be obvious to those skilled in the art that such embodiments are provided by way of example only. Numerous variations, changes, and substitutions will now occur to those skilled in the art without departing from the invention. It should be understood that various alternatives to the embodiments of the invention described herein may be employed in practicing the invention. It is intended that the following claims define the scope of the invention and that methods and structures within the scope of these claims and their equivalents be covered thereby.

[7] = 5.0 μM guanabenz co-treatment with IFN-γ
[8] = interferon-beta 5,000 U/day/mouse alone

N=C(N)N/N=C/c1c(Cl)cccc1Cl [guanabenz]
cell viability (green/red cells, FDA/PI) ([1]; 1.25 μM guanabenz + 200 U/ml IFN-γ, 48 hours): partially restored viability | increase in cell survival compared to IFN-γ alone ([1]; 1.25 μM guanabenz + IFN-γ): roughly 25% | cell viability (green/red cells, FDA/PI) ([1]; 2.5 μM guanabenz + 200 U/ml IFN-γ, 48 hours): partially restored viability | increase in cell survival compared to IFN-γ alone ([1]; 2.5 μM guanabenz + IFN-γ): roughly 25% | cell survival (FIG. 2B) ([1]; 5.0 μM guanabenz + IFN-γ): increased survival almost to control levels | cell viability (green and red cells, FDA/PI) ([1]; 5.0 μM guanabenz alone, no IFN-γ, 48 hours): does not impact cell viability | percent survival (FIG. 2B) ([1]; guanabenz alone vs untreated control): comparable percent survival | IFN-γ induced apoptosis (TUNEL, photomicrographs) [2, 7]: reduced IFN-γ induced apoptosis | reduction of IFN-γ induced apoptosis compared to IFN-γ alone [2, 7]: about 87.5% | myelin fiber and axonal structure ([3]; 2.5 μM guanabenz + 100 U/ml IFN-γ): restored intact, long myelin fiber and axonal structure | myelin fiber and axonal structure ([3]; 5.0 μM guanabenz + 100 U/ml IFN-γ): restored intact, long myelin fiber and axonal structure | myelin fiber and axonal structure ([3]; 10.0 μM guanabenz + 100 U/ml IFN-γ): restored intact, long myelin fiber and axonal structure | clinical score by days post symptom onset ([4]; 4 mg/kg/day): Neither 4 mg/kg/day nor 16 mg/kg/day caused a significant reduction in clinical score | average symptom onset ([4]; 4 mg/kg/day IP from PID 7): 19 days | clinical score by days post symptom onset (symptom severity) ([4]; 8 mg/kg/day): significantly reduced symptom severity | average symptom onset ([4]; 8 mg/kg/day IP from PID 7): about 22 days | clinical score by days post symptom onset ([4]; 16 mg/kg/day): Neither 4 mg/kg/day nor 16 mg/kg/day caused a significant reduction in clinical score | average symptom onset ([4]; 16 mg/kg/day IP from PID 7): about 25 days | delay in symptom onset ([4]; all guanabenz doses (4-16 mg/kg/day), IP daily from PID 7): significant delay in symptom onset | average decrease in relapse severity ([5]; 8 mg/kg IP daily from beginning of remission): about 50% | average decrease in relapse severity ([5]; 16 mg/kg IP daily from onset of remission): about 40% | symptom severity during the remission phase, compared to vehicle ([5]; 16 mg/kg/day IP): greater decrease in symptom severity during the remission phase | onset of clinical symptoms ([6]; guanabenz 8 mg/kg alone): ~18 days

B1: IFN-γ: inflammatory cytokine used to challenge cultured oligodendrocyte lineage cells and cerebellar slices (protein, UniProt P01579 24-161, looked up)
Interferon gamma: QDPYVKEAENLKKYFNAGHSDVADNGTLFLGILKNWKEESDRKIMQSQIVSFYFKLFKNFKDDQSIQKSVETIKEDMNVKFFNSNKKKRDDFEKLTNYSVTDLNVQRKAIHELIQVMAELSPAAKTGKRKRSQMLFRG
decrease in cell survival ([1]; IFN-γ alone, 200 U/ml, 48 hours): 40-50% | increase in apoptosis compared to control cells ([2]; IFN-γ alone): 2-3 fold

B2: interferon-beta (protein, UniProt P01575 22-182, looked up)
Interferon beta: INYKQLQLQERTNIRKCQELLEQLNGKINLTYRADFKIPMEMTEKMQKSYTAFAIQEMLQNVFLVFRNNFSSTGWNETIVVRLLDELHQQTVFLKTVLEEKQEERLTWEMSSTALHLKSYYWRVQRYLKLMKYNSYAWMVVRAEIFRNFLIIRRLTRNFQN
delay of onset of clinical symptoms [6, 8]: did not significantly delay onset of clinical symptoms | onset of clinical symptoms [6, 8]: ~13 days
